# Measurements published in patent publication US6737383B1, “Herbicidal oxadiazolidines” (priority 1999, dated 2004).
# Tests used:
# bamyardgrass = experiment: Test B flood test barnyardgrass; format: in vivo, Echinochloa crus-galli
# Method in brief: (§1)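 Read-out is a visual response score from 0 (no effect) to 10 (complete control), assigned by comparison with untreated controls. Treatment was applied at the 2-leaf stage, and plants stayed in the greenhouse for twelve to sixteen days before scoring.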
# duck salad = experiment: Test B flood test duck salad; format: in vivo, Heteranthera limosa
# Method in brief: as §1
# pigweed = experiment: Test B pre/postemergence pigweed; format: in vivo, Amaranthus retroflexus
# Method in brief: (§2)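 Herbicidal effect was estimated by eye on a ten-point control scale after plants spent twelve to sixteen days in a greenhouse following soil or foliar treatment. Foliar sprays targeted plants at one to four leaves; all doses were formulated in a non-phytotoxic solvent with surfactant.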
# smallflower flatsedge = experiment: Test B flood test smallflower flatsedge; format: in vivo, Cyperus difformis
# Method in brief: as §1
# purple nutsedge = experiment: Test B pre/postemergence purple nutsedge; format: in vivo, Cyperus rotundus
# Method in brief: as §2
# bedstraw = experiment: Test B pre/postemergence bedstraw; format: in vivo, Galium aparine; conditions: Preemergence
# Method in brief: as §2
# giant foxtail = experiment: Test B pre/postemergence giant foxtail; format: in vivo, Setaria faberii
# Method in brief: as §2
# sugar beet = experiment: Test B pre/postemergence sugar beet; format: in vivo, Beta vulgaris
# Method in brief: as §2
# morningglory = experiment: Test B pre/postemergence morningglory; format: in vivo, Ipomoea hederacea
# Method in brief: as §2
# wheat = experiment: Test B pre/postemergence wheat; format: in vivo, Triticum aestivum
# Method in brief: as §2
# wild oat = experiment: Test B pre/postemergence wild oat; format: in vivo, Avena fatua
# Method in brief: as §2
# velvetleaf = experiment: Test B pre/postemergence velvetleaf; format: in vivo, Abutilon theophrasti
# Method in brief: as §2
# surinam grass = experiment: Test B pre/postemergence surinam grass; format: in vivo, Brachiaria decumbens
# Method in brief: as §2
# crabgrass = experiment: Test B pre/postemergence crabgrass; format: in vivo, Digitaria sanguinalis
# Method in brief: as §2
# corn = experiment: Test B pre/postemergence corn; format: in vivo, Zea mays
# Method in brief: as §2
# rice = experiment: Test B flood test rice; format: in vivo, Oryza sativa
# Method in brief: as §1
# cocklebur = experiment: Test B pre/postemergence cocklebur; format: in vivo, Xanthium strumarium
# Method in brief: as §2
# blackgrass = experiment: Test B pre/postemergence blackgrass; format: in vivo, Alopecurus myosuroides
# Method in brief: as §2
# rape = experiment: Test B pre/postemergence rape; format: in vivo, Brassica napus
# Method in brief: as §2
# soybean = experiment: Test B pre/postemergence soybean; format: in vivo, Glycine max
# Method in brief: as §2
# [1] = Rate 62 g/ha, flood test species, Pre-emergence, visual evaluation after twelve to sixteen days
# [2] = Rate 125 g/ha, under heading Pre-emergence, flood test species, visual evaluation after twelve to sixteen days
# [3] = Rate 250 g/ha, Pre-emergence (flood test species), scale 0 to 10, 0 is no effect, 10 is complete control
# [4] = Rate 500 g/ha, Pre-emergence section of Table B, 0 to 10 scale (0 no effect, 10 complete control)
# [5] = Postemergence, Rate 62 g/ha, scale 0 to 10, 0 is no effect, 10 is complete control
# [6] = Postemergence, Rate 125 g/ha, scale of 0 to 10 where 0 is no effect and 10 is complete control
# [7] = Preemergence, Rate 62 g/ha, scale of 0 to 10 where 0 is no effect and 10 is complete control
# [8] = Preemergence, Rate 125 g/ha, scale of 0 to 10 where 0 is no effect and 10 is complete control
# [9] = Preemergence, Rate 250 g/ha, scale 0 to 10 (0 no effect, 10 complete control)
# [10] = Preemergence, Rate 500 g/ha, scale of 0 to 10 where 0 is no effect and 10 is complete control
# [11] = Rate 500 g/ha, Postemergence, scale 0 to 10, 0 is no effect, 10 is complete control
# [12] = Postemergence, Rate 250 g/ha, scale of 0 to 10, 0 is no effect, 10 is complete control
compound,measurement,setting,value
C#CC=CC(C)(C)n1c(=O)on(C(=O)N(c2ccccc2)C(C)C)c1=O [Compound 655],"Plant response rating, Barnyardgrass (0 to 10 scale, 0 is no effect, 10 is complete control)",bamyardgrass; [1],0
same,"Barnyardgrass plant response rating (0 to 10 scale, 0 is no effect, 10 is complete control)",bamyardgrass; [2],0
same,Barnyardgrass plant response rating,bamyardgrass; [3],0
same,Barnyardgrass plant response rating,bamyardgrass; [4],0
same,"Plant response rating, Ducksalad (0 to 10 scale, 0 is no effect, 10 is complete control)",duck salad; [1],0
same,"Ducksalad plant response rating (0 to 10 scale, 0 is no effect, 10 is complete control)",duck salad; [2],0
same,Ducksalad plant response rating,duck salad; [3],0
same,Ducksalad plant response rating,duck salad; [4],0
same,"Plant response rating, Redroot pigweed",pigweed; [5],1
same,Redroot pigweed plant response rating,pigweed; [6],2
same,Redroot pigweed plant response rating,pigweed; [7],0
same,Redroot pigweed plant response rating,pigweed; [8],2
same,"Plant response rating, Redroot pigweed",pigweed; [9],2
same,"Plant response rating, Redroot pigweed",pigweed; [10],4
same,Redroot pigweed plant response rating,pigweed; [11],7
same,"Plant response rating, S. Flatsedge (0 to 10 scale, 0 is no effect, 10 is complete control)",smallflower flatsedge; [1],0
same,"S. Flatsedge plant response rating (0 to 10 scale, 0 is no effect, 10 is complete control)",smallflower flatsedge; [2],0
same,S. Flatsedge plant response rating,smallflower flatsedge; [3],0
same,S. Flatsedge plant response rating,smallflower flatsedge; [4],0
same,"Plant response rating, Nutsedge",purple nutsedge; [5],0
same,Nutsedge plant response rating,purple nutsedge; [6],0
same,Nutsedge plant response rating,purple nutsedge; [7],0
same,Nutsedge plant response rating,purple nutsedge; [8],0
same,"Plant response rating, Nutsedge",purple nutsedge; [9],0
same,"Plant response rating, Nutsedge",purple nutsedge; [10],0
same,Bedstraw plant response rating,"bedstraw; Rate 62 g/ha, scale of 0 to 10 where 0 is no effect and 10 is complete control",0
same,Bedstraw plant response rating,"bedstraw; Rate 125 g/ha, scale of 0 to 10 where 0 is no effect and 10 is complete control",0
same,"Plant response rating, Bedstraw","bedstraw; Rate 250 g/ha, scale 0 to 10 (0 no effect, 10 complete control)",0
same,"Plant response rating, Bedstraw","bedstraw; Rate 500 g/ha, scale of 0 to 10 where 0 is no effect and 10 is complete control",0
same,"Plant response rating, Giant foxtail",giant foxtail; [5],1
same,Giant foxtail plant response rating,giant foxtail; [6],7
same,Giant foxtail plant response rating,giant foxtail; [7],3
same,Giant foxtail plant response rating,giant foxtail; [8],9
same,"Plant response rating, Giant foxtail",giant foxtail; [9],9
same,"Plant response rating, Giant foxtail",giant foxtail; [10],9
same,Giant foxtail plant response rating,giant foxtail; [11],9
same,"Plant response rating, Sugarbeets",sugar beet; [5],0
same,Sugarbeets plant response rating,sugar beet; [6],0
same,Sugarbeets plant response rating,sugar beet; [7],0
same,Sugarbeets plant response rating,sugar beet; [8],0
same,"Plant response rating, Sugarbeets",sugar beet; [9],0
same,"Plant response rating, Sugarbeets",sugar beet; [10],0
same,Sugarbeets plant response rating,sugar beet; [11],2
same,"Plant response rating, Morningglory",morningglory; [5],9
same,Morningglory plant response rating,morningglory; [12],9
same,Morningglory plant response rating,morningglory; [7],0
same,Morningglory plant response rating,morningglory; [8],0
same,"Plant response rating, Morningglory",morningglory; [9],0
same,"Plant response rating, Morningglory",morningglory; [10],0
same,"Plant response rating, Wheat",wheat; [5],0
same,Wheat plant response rating,wheat; [6],0
same,Wheat plant response rating,wheat; [7],0
same,Wheat plant response rating,wheat; [8],0
same,"Plant response rating, Wheat",wheat; [9],0
same,"Plant response rating, Wheat",wheat; [10],0
same,Wheat plant response rating,wheat; [11],0
same,"Plant response rating, Wild oats",wild oat; [5],0
same,Wild oats plant response rating,wild oat; [6],0
same,Wild oats plant response rating,wild oat; [7],0
same,Wild oats plant response rating,wild oat; [8],0
same,"Plant response rating, Wild oats",wild oat; [9],0
same,"Plant response rating, Wild oats",wild oat; [10],0
same,Wild oats plant response rating,wild oat; [11],1
same,"Plant response rating, Velvetleaf",velvetleaf; [5],0
same,Velvetleaf plant response rating,velvetleaf; [6],0
same,Velvetleaf plant response rating,velvetleaf; [7],0
same,Velvetleaf plant response rating,velvetleaf; [8],0
same,"Plant response rating, Velvetleaf",velvetleaf; [9],0
same,"Plant response rating, Velvetleaf",velvetleaf; [10],0
same,Velvetleaf plant response rating,velvetleaf; [11],0
same,"Plant response rating, B. signalgrass",surinam grass; [5],0
same,"Plant response rating, B. signalgrass",surinam grass; [6],0
same,B. signalgrass plant response rating,surinam grass; [12],2
same,B. signalgrass plant response rating,surinam grass; [7],0
same,B. signalgrass plant response rating,surinam grass; [8],0
same,"Plant response rating, B. signalgrass",surinam grass; [9],0
same,"Plant response rating, B. signalgrass",surinam grass; [10],0
same,B. signalgrass plant response rating,surinam grass; [11],2
same,"Plant response rating, Crabgrass",crabgrass; [5],1
same,Crabgrass plant response rating,crabgrass; [6],8
same,Crabgrass plant response rating,crabgrass; [12],8
same,Crabgrass plant response rating,crabgrass; [8],8
same,"Plant response rating, Crabgrass",crabgrass; [9],8
same,"Plant response rating, Crabgrass",crabgrass; [10],9
same,Crabgrass plant response rating,crabgrass; [11],9
same,"Plant response rating, Corn",corn; [5],0
same,Corn plant response rating,corn; [6],0
same,Corn plant response rating,corn; [12],0
same,Corn plant response rating,corn; [7],0
same,Corn plant response rating,corn; [8],0
same,"Plant response rating, Corn",corn; [9],0
same,"Plant response rating, Corn",corn; [10],0
same,Corn plant response rating,corn; [11],0
same,"Plant response rating, Rice (0 to 10 scale, 0 is no effect, 10 is complete control)",rice; [1],0
same,"Rice plant response rating (0 to 10 scale, 0 is no effect, 10 is complete control)",rice; [2],0
same,Rice plant response rating,rice; [3],0
same,Rice plant response rating,rice; [4],0
same,"Plant response rating, Cocklebur",cocklebur; [5],0
same,Cocklebur plant response rating,cocklebur; [6],0
same,Cocklebur plant response rating,cocklebur; [12],0
same,Cocklebur plant response rating,cocklebur; [7],0
same,Cocklebur plant response rating,cocklebur; [8],0
same,"Plant response rating, Cocklebur",cocklebur; [9],0
same,"Plant response rating, Cocklebur",cocklebur; [10],0
same,Cocklebur plant response rating,cocklebur; [11],0
same,"Plant response rating, Blackgrass",blackgrass; [5],0
same,Blackgrass plant response rating,blackgrass; [6],0
same,Blackgrass plant response rating,blackgrass; [12],0
same,Blackgrass plant response rating,blackgrass; [7],0
same,Blackgrass plant response rating,blackgrass; [8],0
same,"Plant response rating, Blackgrass",blackgrass; [9],2
same,"Plant response rating, Blackgrass",blackgrass; [10],3
same,Blackgrass plant response rating,blackgrass; [11],3
same,"Plant response rating, Rape",rape; [5],0
same,Rape plant response rating,rape; [6],2
same,Rape plant response rating,rape; [7],0
same,Rape plant response rating,rape; [8],0
same,"Plant response rating, Rape",rape; [9],0
same,"Plant response rating, Rape",rape; [10],0
same,Rape plant response rating,rape; [11],3
same,"Plant response rating, Soybean",soybean; [5],2
same,Soybean plant response rating,soybean; [6],2
same,Soybean plant response rating,soybean; [7],0
same,Soybean plant response rating,soybean; [8],0
same,"Plant response rating, Soybean",soybean; [9],0
same,"Plant response rating, Soybean",soybean; [10],0
same,Soybean plant response rating,soybean; [11],4
